Assay results reported in US20260027073A1, “USE OF SMALL-MOLECULE COMPOUND HAVING NAPHTHYLAMINE STRUCTURE” (HANGZHOU PHECDAMED CO., LTD., priority 2023, published 2026).

Legend:
[1] = test system: Mouse Model of Chemotherapy-Induced POF; test: Chemotherapy (cyclophosphamide)-induced premature ovarian failure; assay type: in vivo, C57BL/6J mice; conditions: for body weight / ovarian coefficient (ratio of ovarian weight to body weight) / ovarian weight: 30 mg/kg oral gavage, FIG. 67; for serum FSH level / serum E2 level / BDNF level in ovarian tissues: 30 mg/kg; for serum FSH level: FIG. 68; for serum E2 level: FIG. 69; for BDNF level in ovarian tissues: FIG. 70; for effect of TJ01-013 compared with I-14-1: b553: ovarian coefficient, b560: FSH concentration, serum E2 level and BDNF level
Method: Eight-week-old C57BL/6J mice (weighing about 20-25 g) were selected and adaptively fed for 7 d firstly, after which they were randomly divided into three groups according to their body weights, namely, the control group (Control, n=8), the model group (Cy, treated with the solvent 0.5% CMC-Na, n=8), and the TJ01-013 treatment group (Cy+TJ01-013, 30 mg/kg TJ01-013 by oral gavage, n=8). kg TJ01-013, n=8), I-14-1 treatment group (Cy+I-14-1, 30 mg/kg I-14-1 by oral gavage, n=8). The model group and the TJ01-013 treatment group received a single intraperitoneal injection of cyclophosphamide (75 mg/kg, 200-300 μl), and the control group received a single intraperitoneal injection of an equal volume of saline. Samples were collected after 12 days of administration, and body weights, ovary weights, and levels of the serum hormones E2 and FSH of the mice were measured.
The body weight and bilateral ovarian wet weight of each group of mice were weighed with an electronic balance and an analytical balance respectively, and the ovarian organ coefficient of each group was calculated according to the body weight of mice (g) and bilateral ovarian wet weight (mg). The formula is: […]
After the experiment reached the end point, blood was collected from the orbit, and the blood was centrifuged at 12,000 g for 10 min after standing still at room temperature for 45 min, and the supernatant (serum) was taken, and the levels of E2, FSH and BDNF in serum were detected by ELISA.
The mice were euthanized after reaching the end point of the experiment, and the levels of BDNF in the ovarian tissues were assayed by ELISA after the ovaries were extracted and ground.

[2] = test system: autoimmune myocarditis model rats; test: Autoimmune myocarditis model; assay type: in vivo, Lewis rats; conditions: for left ventricular end-diastolic transverse diameter LVIDd / left ventricular end-systolic transverse diameter LVIDs / ejection fraction EF / short-axis fractional shortening FS / serum CK-MB level: 30 mg/kg oral gavage, 4 weeks; for left ventricular end-diastolic transverse diameter LVIDd / left ventricular end-systolic transverse diameter LVIDs: FIG. 79; for ejection fraction EF / short-axis fractional shortening FS: FIG. 80; for serum CK-MB level: FIG. 81
Method: 8-week-old male SPF-grade Lewis rats were adaptively fed for one week to construct an autoimmune myocarditis model. The rats were divided into two groups, normal control group (normal rats, routine feeding) and model group, in which porcine cardiac myosin used to induce autoimmunity and Freund's adjuvant were fully mixed in 1:1 in the model group (purified porcine cardiac myosin was dissolved in PBS solution, with its concentration being controlled to 10 g/L, under sterile conditions the solution was mixed with the complete Freund's adjuvant CFA in 1:1 equal volume and emulsified completely, so that it became a homogeneous emulsion), a total of 0.2 ml of the immunization mixture was injected subcutaneously into multiple points such as the bilateral groin and axilla of the rats. Normal control rats were immunized with myosin-free PBS and CFA emulsion. From the 14th day after immunization, the model groups were administrated in groups, and were divided into three groups: model group (model, treated with 0.5% CMC-Na by oral gavage, n=8) TJ01-013 treatment group (TJ01-013, 30 mg/kg TJ01-013 by oral gavage, n=8), I-14-1 treatment group (I-14-1, 30 mg/kg I-14-1 by oral gavage, n=8). A normal control group (Control, treated with 0.5% CMC-Na by oral gavage, n=8) was further provided, and the administration of the drug was started immediately after grouping, and the drug was administered for a total of 4 weeks. At the end of the administration, rats were weighed, anesthetized and blood was taken, and serum was extracted and the corresponding physiological indexes were detected. After euthanasia, the rats' hearts were stripped and weighed, and the organ coefficients of the hearts were calculated.
After the end of administration, rats were weighed, anesthetized with 10% chloral hydrate via intraperitoneal injection, and then subjected to echocardiography in the supine and slightly left lateral position after chest hair removal, and the average value was taken from 3 repetitions. The detection indexes include left ventricular end-diastolic transverse diameter LVIDd, left ventricular end-systolic transverse diameter LVIDs, short-axis fractional shortening FS, and ejection fraction EF.

Compound | body weight [1] | ovarian coefficient (ratio of ovarian weight to body weight) [1] | ovarian weight [1] | serum FSH level [1] | serum E2 level [1] | BDNF level in ovarian tissues [1] | effect of TJ01-013 compared with I-14-1 ([1]; listed as TJ01-013) | effect of TJ01-013 compared with I-14-1 ([1]; listed as TJ0113) | left ventricular end-diastolic transverse diameter LVIDd [2] | left ventricular end-systolic transverse diameter LVIDs [2] | ejection fraction EF [2] | short-axis fractional shortening FS [2] | serum CK-MB level [2] | treatment of TJ01-013 compared with I-14-1 ([2]; LVIDd/LVIDs, EF/FS, CK-MB)
O=C(O)C[S+]([O-])c1cc(NS(=O)(=O)c2ccc(Br)cc2)c2ccccc2c1O (stereo not shown) [I-1] | no significant change | significantly elevated | significantly elevated | significantly decreased | increased significantly | increased significantly | more effective | better | reduce | reduce | increase | increase | decrease | significantly better
O=C(O)C[S+]([O-])c1cc(NS(=O)(=O)c2ccc(C(F)(F)F)cc2)c2ccccc2c1O (stereo not shown) [I-14-1] | no significant change | significantly elevated | significantly elevated | significantly decreased | increased significantly | increased significantly |  |  | reduce | reduce | increase | increase | decrease | 
